Reference: ChEMBL document CHEMBL1201862, “PubChem BioAssay data set” (2004)
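Grown in 96-well plates, cells were treated for 48 hours with each compound at five concentrations. Insufficient inhibition: endpoint recorded as highest concentration tested. Here, GI50 denotes the concentration required for 50% inhibition of growth.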 The source made the active and inactive calls. No stated cut-off is given here; in the data, active = GI50 up to about 1.1 µM and inactive = higher.

How the values were obtained:
Test in all cases: growth of human tumour cells (NCI), 48 h
PC-3 = tested on: PC-3
MDA-MB-435 = tested on: MDA-MB-435
SR = tested on: SR
SK-MEL-28 = tested on: SK-MEL-28
HL-60 = tested on: HL-60
COLO 205 = tested on: COLO 205
UO-31 = tested on: UO-31
MOLT-4 = tested on: MOLT-4
OVCAR-5 = tested on: OVCAR-5
SN12C = tested on: SN12C
UACC-257 = tested on: UACC-257
OVCAR-4 = tested on: OVCAR-4
ACHN = tested on: ACHN
OVCAR-8 = tested on: OVCAR-8
SW-620 = tested on: SW-620
HCC 2998 = tested on: HCC 2998
TK-10 = tested on: TK-10
T47D = tested on: T47D
A549 = tested on: A549
SF-268 = tested on: SF-268
MDA-MB-231 = tested on: MDA-MB-231
HCT-116 = tested on: HCT-116
EKVX = tested on: EKVX
NCI-H23 = tested on: NCI-H23
CCRF-CEM = tested on: CCRF-CEM
U-251 = tested on: U-251
CAKI-1 = tested on: CAKI-1
LOX IMVI = tested on: LOX IMVI
MCF7 = tested on: MCF7
786-0 = tested on: 786-0
HOP-62 = tested on: HOP-62
UACC-62 = tested on: UACC-62
A498 = tested on: A498
OVCAR-3 = tested on: OVCAR-3
RPMI-8226 = tested on: RPMI-8226
M14 = tested on: M14
DU-145 = tested on: DU-145
NCI/ADR-RES = tested on: NCI/ADR-RES
KM12 = tested on: KM12
MDA-N = tested on: MDA-N
SF-539 = tested on: SF-539
BT-549 = tested on: BT-549
SK-OV-3 = tested on: SK-OV-3
RXF 393 = tested on: RXF 393
SF-295 = tested on: SF-295
NCI-H522 = tested on: NCI-H522
IGROV-1 = tested on: IGROV-1
SK-MEL-2 = tested on: SK-MEL-2
SNB-19 = tested on: SNB-19
HT-29 = tested on: HT-29
Malme-3M = tested on: Malme-3M
SK-MEL-5 = tested on: SK-MEL-5
HCT-15 = tested on: HCT-15
HOP-92 = tested on: HOP-92
Hs-578T = tested on: Hs-578T
NCI-H460 = tested on: NCI-H460
NCI-H226 = tested on: NCI-H226
SNB-75 = tested on: SNB-75
K562 = tested on: K562

SMILES: Cc1occc1C(=S)Nc1ccc(Cl)c(C(=O)OC(C(C)C)C(C)C)c1
- GI50 (PC-3): 7.46 µM (inactive)
- GI50 (MDA-MB-435): 15.1 µM (inactive)
- GI50 (SR): 7 µM (inactive)
- GI50 (SK-MEL-28): 12.5 µM (inactive)
- GI50 (HL-60): 10.8 µM (inactive)
- GI50 (COLO 205): 9.59 µM (inactive)
- GI50 (UO-31): 5 µM (inactive)
- GI50 (MOLT-4): 5.32 µM (inactive)
- GI50 (OVCAR-5): 22.6 µM (inactive)
- GI50 (SN12C): 14.9 µM (inactive)
- GI50 (UACC-257): 4.85 µM (inactive)
- GI50 (OVCAR-4): 14.7 µM (inactive)
- GI50 (ACHN): 12.1 µM (inactive)
- GI50 (OVCAR-8): 13.3 µM (inactive)
- GI50 (SW-620): 16.6 µM (inactive)
- GI50 (HCC 2998): 9.23 µM (inactive)
- GI50 (TK-10): 15.3 µM (inactive)
- GI50 (T47D): 4.49 µM (inactive)
- GI50 (A549): 11.6 µM (inactive)
- GI50 (SF-268): 18.5 µM (inactive)
- GI50 (MDA-MB-231): 12.6 µM (inactive)
- GI50 (HCT-116): 10.1 µM (inactive)
- GI50 (EKVX): 8 µM (inactive)
- GI50 (NCI-H23): 8.15 µM (inactive)
- GI50 (CCRF-CEM): 7.16 µM (inactive)
- GI50 (U-251): 10.8 µM (inactive)
- GI50 (CAKI-1): 17.1 µM (inactive)
- GI50 (LOX IMVI): 13 µM (inactive)
- GI50 (MCF7): 13.1 µM (inactive)
- GI50 (786-0): 13.7 µM (inactive)
- GI50 (HOP-62): 17.2 µM (inactive)
- GI50 (UACC-62): 10.8 µM (inactive)
- GI50 (A498): 13.6 µM (inactive)
- GI50 (OVCAR-3): 13.4 µM (inactive)
- GI50 (RPMI-8226): 6.11 µM (inactive)
- GI50 (M14): 12.7 µM (inactive)
- GI50 (DU-145): 13.7 µM (inactive)
- GI50 (NCI/ADR-RES): 9.98 µM (inactive)
- GI50 (KM12): 12.5 µM (inactive)
- GI50 (MDA-N): 12.1 µM (inactive)
- GI50 (SF-539): 16.4 µM (inactive)
- GI50 (BT-549): 16.6 µM (inactive)
- GI50 (SK-OV-3): 18.4 µM (inactive)
- GI50 (RXF 393): 13.3 µM (inactive)
- GI50 (SF-295): 5.47 µM (inactive)
- GI50 (NCI-H522): 11.8 µM (inactive)
- GI50 (IGROV-1): 15.2 µM (inactive)
- GI50 (SK-MEL-2): 16.5 µM (inactive)
- GI50 (SNB-19): 21.3 µM (inactive)
- GI50 (HT-29): 14.1 µM (inactive)
- GI50 (Malme-3M): 12 µM (inactive)
- GI50 (SK-MEL-5): 14.6 µM (inactive)
- GI50 (HCT-15): 13.1 µM
- GI50 (HOP-92): 7.82 µM (inactive)
- GI50 (Hs-578T): 17.6 µM (inactive)
- GI50 (NCI-H460): 13.6 µM (inactive)
- GI50 (NCI-H226): 15.2 µM (inactive)

SMILES: C(=N\c1cnc2ccccc2c1)/c1ccc2ccccc2n1
- GI50 (PC-3): > 100 µM (inactive)
- GI50 (MDA-MB-435): > 100 µM (inactive)
- GI50 (SR): 24 µM (inactive)
- GI50 (SK-MEL-28): > 100 µM (inactive)
- GI50 (HL-60): 53.3 µM (inactive)
- GI50 (COLO 205): > 100 µM (inactive)
- GI50 (SNB-75): > 100 µM (inactive)
- GI50 (UO-31): > 100 µM (inactive)
- GI50 (MOLT-4): 50 µM (inactive)
- GI50 (OVCAR-5): > 100 µM (inactive)
- GI50 (SN12C): > 100 µM (inactive)
- GI50 (UACC-257): > 100 µM (inactive)
- GI50 (OVCAR-4): > 100 µM (inactive)
- GI50 (ACHN): > 100 µM (inactive)
- GI50 (OVCAR-8): > 100 µM (inactive)
- GI50 (SW-620): 64.1 µM (inactive)
- GI50 (TK-10): > 100 µM (inactive)
- GI50 (T47D): > 100 µM (inactive)
- GI50 (A549): > 100 µM (inactive)
- GI50 (SF-268): > 100 µM (inactive)
- GI50 (MDA-MB-231): > 100 µM (inactive)
- GI50 (K562): 52 µM (inactive)
- GI50 (HCT-116): 35.6 µM (inactive)
- GI50 (EKVX): > 100 µM (inactive)
- GI50 (NCI-H23): > 100 µM (inactive)
- GI50 (CCRF-CEM): 23.8 µM (inactive)
- GI50 (U-251): 67.5 µM (inactive)
- GI50 (CAKI-1): > 100 µM (inactive)
- GI50 (LOX IMVI): 72.9 µM (inactive)
- GI50 (MCF7): 43 µM (inactive)
- GI50 (786-0): > 100 µM (inactive)
- GI50 (HOP-62): > 100 µM (inactive)
- GI50 (UACC-62): > 100 µM (inactive)
- GI50 (A498): > 100 µM (inactive)
- GI50 (OVCAR-3): 27.7 µM (inactive)
- GI50 (RPMI-8226): 29.2 µM (inactive)
- GI50 (M14): > 100 µM (inactive)
- GI50 (DU-145): > 100 µM (inactive)
- GI50 (NCI/ADR-RES): > 100 µM (inactive)
- GI50 (KM12): > 100 µM (inactive)
- GI50 (MDA-N): > 100 µM (inactive)
- GI50 (SF-539): > 100 µM (inactive)
- GI50 (BT-549): > 100 µM (inactive)
- GI50 (SK-OV-3): > 100 µM (inactive)
- GI50 (RXF 393): > 100 µM (inactive)
- GI50 (SF-295): > 100 µM (inactive)
- GI50 (NCI-H522): > 100 µM (inactive)
- GI50 (IGROV-1): > 100 µM (inactive)
- GI50 (SK-MEL-2): > 100 µM (inactive)
- GI50 (SNB-19): > 100 µM (inactive)
- GI50 (HT-29): > 100 µM (inactive)
- GI50 (Malme-3M): > 100 µM (inactive)
- GI50 (SK-MEL-5): > 100 µM (inactive)
- GI50 (HCT-15): 55.6 µM
- GI50 (HOP-92): > 100 µM (inactive)
- GI50 (Hs-578T): > 100 µM (inactive)
- GI50 (NCI-H460): > 100 µM (inactive)
- GI50 (NCI-H226): > 100 µM (inactive)
